Source: patent US20200172913A1, “PEPTIDES AND NANOPARTICLES FOR INTRACELLULAR DELIVERY OF VIRUS” (priority 2017, published 2020)
Where no end group is shown, it is not given here. PEG = not defined here; βAla = NCCC(=O)O

Tests used:
[1] = test system: 293 T cells; assay: AAV-2/PEP-1 peptide particle stability (serum, heparin), GFP expressing cells by flow cytometry; format: cell-based; conditions: for effect of the modification on AAV/PEP-1 complex stability in serum: high concentration of serum; for reduction of the level of GFP expressing cells (efficacy): particles incubated 1 hour in 50% serum, 50 μM peptide, AAV-2 MOI of 300; for increase of efficacy: standard conditions (no serum, no heparin), vs unmodified PEP-1
Method: Stock solutions of peptides were prepared at 2 mg/mL in distilled water or 5% DMSO and sonicated for 10 min in a water bath sonicator then diluted just before use. AAV-2 encoding green fluorescent protein at MOI of 300 was pre-incubated in low salt medium with PEP-1 peptides containing either a specific targeting motif, a PEG or Dopamine moiety at a concentration of 50 μM for 30 min. The AAV-2/peptide particle stability was evaluated in different conditions. Particles were incubated for 1 hour in DMEM medium containing 10, 20 to 50% serum (FSC) or in the presence of heparin (5 and 10 μg). Then AAV alone or PEP-1/AAV complexes were added to cultured 293 T cells in a 24 well plate format. Cells were treated with either free AAV-2 or Peptide/AAV-2 complexes for 4 h, and then the medium was replaced with fresh medium. Viral mediated transgene expression was monitored 2 days post-infection. GFP expressing cells were detected by flow cytometry.

[2] = test system: HepG2 cells; assay: AAV-6-GFP transduction with CPPs, flow cytometry; format: cell-based, human; conditions: 200 μM CPP; for cells expressing GFP: AAV-6 MOI of 500, HepG2, 5% in the absence of CPP; for increase of AAV-6 efficiency: MOI of 500, HepG2
Method: (§1) In this example different AAV serotypes including AAV 1, AAV2, AAV5, AAV6, AAV8 and AAV9 were tested against human hepatocytes (HepG2) and human neuronal cells (HCN2) in the presence or in the absence of CPPs including ADGN-103a, ADGN-103b, ADGN-100, ADGN-109, ADGN-106, PEP-1, PEP-2, CADY, and TAT-HA2.
(§2) AAV-1, AAV-2, AAV-5, and AAV-6 viruses encoding green fluorescent protein were obtained from Cell Biolabs Inc and AAV-8 from Vector Biolabs. Stock solutions of virus were obtained at 1χ10^13 GC/ml in PBS/0.01% and diluted 50-fold to 2×10^11 GC/ml before use.
(§3) AAV-1, AAV-2, AAV-5, and AAV6 encoding green fluorescent protein were used at low MOI of 500 (1-2×10^7 PFU) and AAV-8 at MOI of 1000 (2-4×10^7 PFU). HepG2 and HCN2 cells (1 10^6 cells per well) were cultured in a 24 well plate culture dish format. For MOI of 1000, 5 μl of AAV virus diluted solutions were preincubated in PBS with increasing concentration of CPPs ranging from 0.1 to 200 μM for 30 min. For MOI of 500, 2.5 μl of AAV virus diluted solutions were preincubated in PBS with increasing concentration of CPPs ranging from 0.1 to 200 μM for 30 min. 200 μl of AAV or CPP/AAV complex solutions were added to cultured cells (1×10^6 cells per well). Cells are treated with either free AAV or CPP/AAV complexes for 4 h. and then the medium is replaced with fresh medium.
(§4) Viral mediated transgene expression was monitored by flow cytomety 2 days post-infection in HepG2 and Human neuronal HCN2. The percentage of GFP expressing cells were detected by flow cytometry and the increase of AAV infectivity was calculated based on the number of GFP-positive cells. Results are reported in FIGS. 5A-5D, 6A-6D, 7A-7D, 8A-8D, and 9A-9D.

[3] = test system: HCN2 cells; assay: AAV-6-GFP transduction with CPPs, flow cytometry; format: cell-based, human; conditions: for increase of AAV-6 efficiency: 200 μM CPP, MOI of 500, HCN2; for cells expressing GFP: 200 μM of CPP, AAV-6 MOI of 500, HCN2, 4% in the absence of CPP
Method: as §1, §2, §3, §4

[4] = test system: HepG2 cells; assay: AAV-8-GFP transduction with CPPs, flow cytometry; format: cell-based, human; conditions: 200 μM CPP, AAV-8 MOI of 1000, HepG2; 5% in the absence of CPP
Method: as §1, §2, §3, §4

[5] = test system: HCN2 cells; assay: AAV-8-GFP transduction with CPPs, flow cytometry; format: cell-based, human; conditions: 200 μM CPP, AAV-8 MOI of 1000, HCN2; 5% in the absence of CPP
Method: as §1, §2, §3, §4

[6] = test system: HepG2 cells; assay: AAV-5-GFP transduction with CPPs, flow cytometry; format: cell-based, human; conditions: 200 μM CPP; for cells expressing GFP: AAV-5 MOI of 500, HepG2, 5% in the absence of CPP; for increase of AAV-5 efficiency: MOI of 500, HepG2
Method: as §1, §2, §3, §4

[7] = test system: HCN2 cells; assay: AAV-5-GFP transduction with CPPs, flow cytometry; format: cell-based, human; conditions: 200 μM CPP; for cells expressing GFP: AAV-5 MOI of 500, HCN2, 5% in the absence of CPP; for increase of AAV-5 efficiency: MOI of 500, HCN2
Method: as §1, §2, §3, §4

[8] = test system: HepG2 cells; assay: AAV-1-GFP transduction with CPPs, flow cytometry; format: cell-based, human; conditions: 200 μM CPP; for cells expressing GFP: AAV-1 MOI of 500, HepG2, 5% in the absence of CPP
Method: as §1, §2, §3, §4

[9] = test system: HCN2 cells; assay: AAV-1-GFP transduction with CPPs, flow cytometry; format: cell-based, human; conditions: 200 μM CPP; for cells expressing GFP: AAV-1 MOI of 500, HCN2, 5% in the absence of CPP; for increase of AAV-1 efficiency: MOI of 500, HCN2
Method: as §1, §2, §3, §4

[10] = test system: HepG2 cells; assay: AAV-2-GFP transduction with CPPs, flow cytometry; format: cell-based, human; conditions: 200 μM CPP; for cells expressing GFP: AAV-2 MOI of 500, HepG2, 4% in the absence of CPP; for increase of AAV-2 efficiency: MOI of 500, HepG2
Method: as §1, §2, §3, §4

[11] = test system: HCN2 cells; assay: AAV-2-GFP transduction with CPPs, flow cytometry; format: cell-based, human; conditions: 200 μM CPP; for cells expressing GFP: AAV-2 MOI of 500, HCN2, 4% in the absence of CPP; for increase of AAV-2 efficiency: MOI of 500, HCN2
Method: as §1, §2, §3, §4

[12] = test system: HepG2 and HCN2 cells; assay: AAV-8-GFP transduction with CPPs, statements for both cell lines; format: cell-based, human; conditions: for impact on AAV-8 infectivity: 1 μM concentration, both cell lines; for share of the final improvement obtained at 200 μM: 10 μM concentration, AAV-8, both cell lines
Method: as §1, §2, §3, §4

[13] = test system: HepG2 and HCN2 cells; assay: AAV-1-GFP transduction with CPPs, statements for both cell lines; format: cell-based, human; conditions: for impact on AAV-1 infectivity: 1 μM concentration, both cell lines; for share of the final improvement obtained with 200 μM: 10 μM concentration of CPP, AAV-1, both cell lines
Method: as §1, §2, §3, §4

[14] = test system: HepG2 and HCN2 cells; assay: AAV-5-GFP transduction with CPPs, statements for both cell lines; format: cell-based, human; conditions: for impact on AAV-5 infectivity: 1 μM concentration, both cell lines; for share of the final improvement obtained at 200 μM: 10 μM concentration, AAV-5, both cell lines
Method: as §1, §2, §3, §4

[15] = test system: HepG2 and HCN2 cells; assay: AAV-6-GFP transduction with CPPs, statements for both cell lines; format: cell-based, human; conditions: for impact on AAV-6 infectivity: 1 μM concentration, both cell lines; for share of the final improvement obtained at 200 μM: 10 μM concentration, AAV-6, both cell lines
Method: as §1, §2, §3, §4

[16] = test system: HepG2 and HCN2 cells; assay: AAV-2-GFP transduction with CPPs, statements for both cell lines; format: cell-based, human; conditions: for impact on AAV-2 infectivity: 1 μM concentration, both cell lines; for share of the final improvement obtained with 200 μM: 10 μM concentration of CPP, AAV-2, both cell lines
Method: as §1, §2, §3, §4

DOPA-GGGG-KETWWETWWTEWSQPKKKRKV (GGGGKETWWETWWTEWSQPKKKRKV; not fully specified (N-terminus)) [PEP-1-DOPA, Dopamine added to the N-terminus of PEP-1 using a Gly4 linker]
effect of the modification on AAV/PEP-1 complex stability in serum [1]: stabilized | reduction of the level of GFP expressing cells (efficacy) [1]: 30% | increase of efficacy [1]: 40%

GLWRALWRLLRSLWRLLWKV [CADY, reference compound]
cells expressing GFP [2]: 29% | increase of AAV-6 efficiency [3]: 3 fold | cells expressing GFP [3]: 18% | cells expressing GFP [4]: 15% | cells expressing GFP [5]: 12% | cells expressing GFP [6]: 11% | increase of AAV-5 efficiency [6]: 3 fold | cells expressing GFP [7]: 10% | increase of AAV-5 efficiency [7]: 2 fold | cells expressing GFP [8]: 27% | cells expressing GFP [9]: 22% | increase of AAV-1 efficiency [9]: 3 fold | cells expressing GFP [10]: 23% | increase of AAV-2 efficiency [10]: 5 fold | cells expressing GFP [11]: 20% | increase of AAV-2 efficiency [11]: 3 fold

GYVSK-GGGGSKETWWETWWTEWSQPKKKRKV (Ac-GYVSKGGGGSKETWWETWWTEWSQPKKKRKV-cysteamide) [PEP-1 T1]
effect of the modification on AAV/PEP-1 complex stability in serum [1]: significantly protected | reduction of the level of GFP expressing cells (efficacy) [1]: 27%

KETWWETWWTEWSQPKKKRKVGGGG-GYVSK (Ac-KETWWETWWTEWSQPKKKRKVGGGGGYVSK-cysteamide) [PEP-1 T2]
effect of the modification on AAV/PEP-1 complex stability in serum [1]: only a moderate effect

PEG-βAKETWWETWWTEWSQPKKKRKV ({PEG-βAla}-KETWWETWWTEWSQPKKKRKV; reading uncertain) [PEP-1-PEG, PEP-1 mono-PEGylated with 5 kDa PEG at the N-terminal beta Alanine]
effect of the modification on AAV/PEP-1 complex stability in serum [1]: stabilized | reduction of the level of GFP expressing cells (efficacy) [1]: 30% | increase of efficacy [1]: 40%

βAKWFERWFREWPRKRR (not fully specified (residue 1, N-terminus); printed as βAKWFERWFREWPRKRR) [ADGN-103a]
cells expressing GFP [2]: 94% | cells expressing GFP [3]: 65% | impact on AAV-8 infectivity [12]: significant impact | share of the final improvement obtained at 200 μM [12]: about 60% | cells expressing GFP [4]: 52% | cells expressing GFP [5]: 49% | impact on AAV-1 infectivity [13]: significant impact | share of the final improvement obtained with 200 μM [13]: about 60% | cells expressing GFP [6]: 60% | cells expressing GFP [7]: 45% | impact on AAV-5 infectivity [14]: significant impact | share of the final improvement obtained at 200 μM [14]: about 50% | impact on AAV-6 infectivity [15]: significant impact | share of the final improvement obtained at 200 μM [15]: about 70% | cells expressing GFP [8]: 76% | cells expressing GFP [9]: 75% | cells expressing GFP [10]: 98% | cells expressing GFP [11]: 71% | impact on AAV-2 infectivity [16]: significant impact | share of the final improvement obtained with 200 μM [16]: about 70%

βAKWRSAGWRWRLWRVRSWSR (not fully specified (residue 1, N-terminus); printed as βAKWRSAGWRWRLWRVRSWSR) [ADGN-100]
cells expressing GFP [2]: 59% | increase of AAV-6 efficiency [2]: 17 fold | increase of AAV-6 efficiency [3]: 15 fold | cells expressing GFP [3]: 48% | impact on AAV-8 infectivity [12]: significant impact | share of the final improvement obtained at 200 μM [12]: about 60% | cells expressing GFP [4]: 26% | cells expressing GFP [5]: 23% | impact on AAV-1 infectivity [13]: significant impact | share of the final improvement obtained with 200 μM [13]: about 60% | cells expressing GFP [6]: 39% | increase of AAV-5 efficiency [6]: 10 fold | cells expressing GFP [7]: 22% | increase of AAV-5 efficiency [7]: 5 fold | impact on AAV-5 infectivity [14]: significant impact | share of the final improvement obtained at 200 μM [14]: about 50% | impact on AAV-6 infectivity [15]: significant impact | share of the final improvement obtained at 200 μM [15]: about 70% | cells expressing GFP [8]: 50% | increase of AAV-1 efficiency ([8]; MOI of 500, HepG2): 13 fold | cells expressing GFP [9]: 52% | increase of AAV-1 efficiency [9]: 12 fold | cells expressing GFP [10]: 57% | increase of AAV-2 efficiency [10]: 20 fold | cells expressing GFP [11]: 59% | increase of AAV-2 efficiency [11]: 15 fold | impact on AAV-2 infectivity [16]: significant impact | share of the final improvement obtained with 200 μM [16]: about 70%

βALWRALWRLWRSLWRLLWKA (not fully specified (residue 1, N-terminus); printed as βALWRALWRLWRSLWRLLWKA) [ADGN-106]
increase of AAV-6 efficiency [2]: about 10 fold | increase of AAV-6 efficiency [3]: 7 fold | increase of AAV-5 efficiency [7]: 4 fold | increase of AAV-1 efficiency [9]: 7 fold | increase of AAV-2 efficiency [11]: 7 fold
